Source: US20100099642A1, “TGF-BETA STIMULANT AND FURTHER AGENT TO REDUCE SIDE EFFECTS” (TCP Innovations Limited, priority 2007, published 2010)
Marks after values point to notes of the source that are not given here.

What was measured:
[1] = system: anti-collagen type II antibodies; test: direct ELISA for anti-collagen type II antibodies in serum of collagen-induced arthritis mice; type: in vivo, mouse; conditions: day 39, TMX 1 mg/kg/day, aspirin 30 mg/kg/day
Procedure: (1980) Nature 283:666-8). Adult (12 week old) male DBA/1 mice were divided into groups of six animals. […] Foodpad thickness was determined each day using a digital caliper EC1507 (Moore & Wright) accurate to 0.01 mm. The thickness of each footpad was determined three times on each day by a single operator blind to the treatment condition of the mouse, and the footpad thickness of each mouse on each day was reported as the mean for the three measurements for all four paws. Errors represent the standard error of the mean among the six animals in each group. A direct ELISA for anti-collagen type II antibodies was used as an alternative assessment of the autoimmune response.

DBA/1 mice = test: collagen-induced arthritis, footpad thickness in DBA/1 mice; type: in vivo, mouse; conditions: Tamoxifen 1 mg/kg/day p.o, aspirin 30 mg/kg/day p.o, from the booster injection onwards
Procedure: Collagen-induced arthritis was induced in adult male DBA/1 mice as previously described (Courtenay et al. (1980) Nature 283:666-8). Adult (12 week old) male DBA/1 mice were divided into groups of six animals. Mice received 100 μg per mouse of bovine type II collagen (Sigma) in Freunds Complete Adjuvant (FCA) by the subcutaneous route, while a control group received an identical injection of type I collagen in FCA. Twenty-one days later, all groups of mice received an intraperitoneal booster injection containing 100 μg per mouse of the same collagen type as previously, but in the absence of adjuvant. […] Foodpad thickness was determined each day using a digital caliper EC1507 (Moore & Wright) accurate to 0.01 mm. The thickness of each footpad was determined three times on each day by a single operator blind to the treatment condition of the mouse, and the footpad thickness of each mouse on each day was reported as the mean for the three measurements for all four paws. Errors represent the standard error of the mean among the six animals in each group.

SMILES: CC/C(=C(\c1ccccc1)c1ccc(OCCN(C)C)cc1)c1ccccc1 [Tamoxifen]
- Pan IgG against bovine collagen II, median concentration in serum [1]: 181 µg/mL
- IgG1 against bovine collagen II, median absorbance from the direct ELISA ([1]; neat serum): <0.05*
- IgG2a against bovine collagen II, median absorbance from the direct ELISA ([1]; neat serum): 0.081*
- IgG2b against bovine collagen II, median absorbance from the direct ELISA ([1]; neat serum): 0.482*
- IgG3 against bovine collagen II, median absorbance from the direct ELISA ([1]; neat serum): 0.069*
- reduction of maximal collagen-II induced footpad swelling (DBA/1 mice): 36%
